The conditions of data set [1]: after oral ingestion; cited from earlier work.
The test system of data set [2] is rats.
The conditions of data set [3]: rats, cited from earlier work.
For data set [4] the following is noted: Ames test; cited from earlier work.
The conditions of data set [5]: in vivo; cited from earlier work.
The subject of the next data set is females. The settings on record: cited from earlier work; for mean plasma bromide concentration at the end of the treatment: three menstrual cycles.
For data set [6], the system named is rats. Particulars: cited from earlier work.
For data set [7] the following is noted: cited from earlier work.
Data set [8] is described as follows: Solubility of dextromethorphan hydrochloride in water. Particulars: at the pH of the compositions of the present invention. The text has this: However, the compositions of the invention may contain sufficient levels of one or more cosolvents. Preferred cosolvents for this purpose include ethanol, propylene glycol, polyethylene glycol, glycerin, and sorbitol; more preferred cosolvents include ethanol, propylene glycol and glycerin.

A further data set concerns healthy volunteers. The settings on record: cited from earlier work.
Data set [9] relates to rats. The settings on record: cited from earlier work. This is another data set of the same source.
For the next data set, the system named is thyroid gland. The settings on record: rats, diets containing 4800 or 19200 ppm NaBr; as soon as 3 days, constant during 12 weeks; cited from earlier work.

SMILES strings stand for the structures. Where a name gives a salt, the structure may show the parent alone. Read-outs that look alike come from different tables or passages of the source.

What is called half-life is the time needed for the level to fall by half in the phase considered. In the case of `Br` [Bromide], the “absorption in the gastrointestinal tract” value in [1] is “rapidly and completely absorbed”. For the same compound, the “No Observable Adverse Effect Level (NOAEL), effects on the thyroid” value worked out at 12 mg bromide/kg/day with rats [2] (equivalent daily dose) and 240 ppm with rats [2] (expressed as bromide). The half-life in data set [3] (chloride-free diet) is 25 days; in data set [3] (normal) it was “three”. The mutagenicity entry in data set [4] is “not mutagenic”. Also, the half life in data set [5] was 9 to 12 days. Besides, the results for the “mean plasma bromide concentration at the end of the treatment” value with females (4 mg Br/kg/day) and in the data set on females (9 mg Br/kg/day) were 3.22 mmol/L and 7.99 mmol/L, respectively. The “quantitative analysis of the electroencephalogram (EEG)” value in the data set on females (9 mg Br/kg/day) was “only a marginal effect”. Moreover, the “clinical observation: effects on the thyroid or on the central nervous system” value in the data set on females (4 and 9 mg Br/kg/day) was “did not show effects”. The “serum thyroxine, free thyroxine, triiodothyronine, thyrotropin and thyroxine-binding globulin” value in the data set on females (4 and 9 mg Br/kg/day) was “In none of the three groups were significant changes observed”. In the data set on rats [6] (short-term toxicity studies, higher doses), the “central nervous system effects” value is “motor incoordination of the hind legs and inhibition of grooming”.
As to `COc1ccc2c(c1)[C@]13CCCC[C@@H]1[C@H](C2)N(C)CC3` [Dextromethorphan Hydrobromide], the figures for the solubility entry in data set [7] (at 20° C.) and in [7] (at 85° C.) were “about 1.5 weight percent” and “about 25 wt. %”, respectively.
Consider `COc1ccc2c(c1)[C@]13CCCC[C@@H]1[C@H](C2)N(C)CC3` [Dextromethorphan hydrochloride], for which the solubility in water entry in data set [8] is reported as “highly soluble”.
With `[Br-].[Na+]` [sodium bromide], the “neurophysiological data (EEG and visual evoked response)” value in the data set on healthy volunteers (9 mg Br/kg/day, within normal limits) was “shifts in the power of various spectral bands and a shift in mean frequency”. In addition, the “medical history, physical examination, haematology, clinical chemistry and urine analyses” value in the data set with healthy volunteers (4 or 9 mg Br/kg/day, start versus end of study) is given as “Except for incidental nausea, no changes were observed”. Also, in the data set with healthy volunteers (4 or 9 mg Br/kg/day), the “serum free thyroxine, thyroxine-binding globulin, cortisol, oestradiol, progesterone, testosterone, thyrotropin, prolactin, LH, FSH” value is on record as “No changes were observed”. The “mean plasma bromide concentration at the end of treatment” value is 3.05 mmol/L in the data set with healthy volunteers (females, 4 mg Br/kg/day oral, three full cycles); 4.93 mmol/L in the data set with healthy volunteers (females, 9 mg Br/kg/day oral, three full cycles); 2.14 millimoles/liter in the data set with healthy volunteers (males, 4 mg Br/kg/day oral, 12 weeks); 4.30 millimoles/liter with healthy volunteers (males, 9 mg Br/kg/day oral, 12 weeks). Further, in the data set with healthy volunteers (females, 9 mg Br/kg/day, all concentrations within normal limits), the “serum thyroxine and triiodothyronine at the end of the study compared to pre-administration values” was “significant increase”. Further, in the data set with rats [6] (expressed as sodium bromide), the “No Observable Adverse Effect Level (NOAEL), effects on the thyroid” value is recorded as 300 ppm. Besides, in the data set with rats [6] (special studies), the “levels of thyroxine, growth hormone, testosterone and corticosterone” value is listed as “decreased levels”. Also, the “thyroid-stimulating hormone (TSH) and insulin” value with rats [6] (special studies) is “increased”. In the data set on rats [9] (1200 ppm), the effects on reproduction result is “no effects on reproduction were observed”. Also, the “fertility and viability of the offspring” value in the data set with rats [9] (4800 ppm) is “reduced”. Moreover, the fertility result with rats [9] (19200 ppm sodium bromide, reversible) was “complete infertility”. Further, in the data set with thyroid gland, the thyroxine concentrations entry was “significantly decreased”.

Source of the values: US20130225627A1, “DEXTROMETHORPHAN ANTITUSSIVE COMPOSITIONS” (Trinity Laboratories, Inc., priority 2010, published 2013).
